Laboratory results reported in BigSolDB 2.1.

C[C@@H]1CC[C@H]2[C@@H](C)C(=O)O[C@@H]3O[C@@]4(C)CC[C@@H]1[C@]32OO4
solubility (mole fraction)
Details | 283.15 K | 288.15 K | 293.15 K | 298.15 K | 303.15 K | 308.15 K | 313.15 K | 318.15 K | 323.15 K
in acetone | 0.00388 | 0.0051 | 0.00673 | 0.00863 | 0.0114 | 0.0145 | 0.0181 | 0.0223 | 0.0278
in acetonitrile | 0.000198 | 0.000257 | 0.000356 | 0.000518 | 0.000723 | 0.00103 | 0.00143 | 0.00196 | 0.0027
in chloroform | 0.0487 | 0.0613 | 0.0795 | 0.101 | 0.127 | 0.157 | 0.193 | 0.236 | 0.287
in cyclohexane | 0.00044 | 0.000585 | 0.000745 | 0.00106 | 0.00137 | 0.00171 | 0.00209 | 0.00265 | 0.00341
in ethyl acetate | 0.00525 | 0.00786 | 0.0117 | 0.0153 | 0.0205 | 0.0282 | 0.0377 | 0.0499 | 0.0657
in methanol | 0.000559 | 0.000773 | 0.00111 | 0.00145 | 0.00195 | 0.00267 | 0.00375 | 0.00477 | 0.00622
in toluene | 0.0375 | 0.0435 | 0.052 | 0.0603 | 0.0711 | 0.0815 | 0.0937 | 0.107 | 0.122
